Laboratory results taken from ChEMBL document CHEMBL1128927, “Synthesis and biological activities of [N-MeLeu5] didemnin B” (Bioorg Med Chem Lett, 1996).

Columns and labels:
Format in all cases: functional
Oryctolagus cuniculus = species: Oryctolagus cuniculus; assay: In vitro inhibition of protein synthesis in rabbit reticulocyte lysates.
HT-29 = assay: Compound was evaluated for cytotoxic activity against colon cancer HT-29 cell lines.; conditions: Homo sapiens, read-out: LC50 (the source's name)
A549 = assay: Compound was evaluated for cytotoxic activity against non-small lung cancer A549/ATCC cell lines.; conditions: Homo sapiens, read-out: LC50 (the source's name)
RXF 393 = assay: Compound was evaluated for cytotoxic activity against renal cancer RXF-393 cell lines.; conditions: Homo sapiens, read-out: LC50 (the source's name)
SK-MEL-5 = assay: Compound was evaluated for cytotoxic activity against melanoma Sk-MEL-5 cell lines.; conditions: Homo sapiens, read-out: LC50 (the source's name)
SNB-75 = assay: Compound was evaluated for cytotoxic activity against CNS cancer SNB-75 cell lines.; conditions: Homo sapiens, read-out: LC50 (the source's name)

SMILES	IC50 (Oryctolagus cuniculus) [µM]	CC50 (HT-29) [µM]	CC50 (A549) [µM]	CC50 (RXF 393) [µM]	CC50 (SK-MEL-5) [µM]	CC50 (SNB-75) [µM]
CC[C@H](C)[C@H]1NC(=O)[C@@H](NC(=O)[C@@H](CC(C)C)N(C)C(=O)[C@@H]2CCCN2C(=O)[C@H](C)O)[C@@H](C)OC(=O)[C@H](CC(C)C)N(C)C(=O)[C@@H]2CCCN2C(=O)[C@H](CC(C)C)NC(=O)[C@@H](C)C(=O)[C@H](C(C)C)OC(=O)C[C@@H]1O [listing 1 of 2 here]	9					
CC[C@H](C)[C@H]1NC(=O)[C@@H](NC(=O)[C@@H](CC(C)C)N(C)C(=O)[C@@H]2CCCN2C(=O)[C@H](C)O)[C@@H](C)OC(=O)[C@H](CC(C)C)N(C)C(=O)[C@@H]2CCCN2C(=O)[C@H](CC(C)C)NC(=O)[C@@H](C)C(=O)[C@H](C(C)C)OC(=O)C[C@@H]1O [listing 2 of 2 here]		0.445	> 25	0.258	0.0799	0.399
